The source of these data is patent US11427615B2, “Peptide compound and application thereof, and composition containing peptide compound” (XDCEXPLORER (SHANGHAI) CO., LTD., priority 2017, dated 2022).

pEC50: −log10 of the molar value. Starred links: 1 amine or outer side, 2 acyl side, 3 side chain; linkers in the order of their positions; H or OH if unused. Non-standard residues stand in square brackets, D forms with d. Residues, ends and D or L forms follow the SMILES beside them. dPhe(2,4-Cl2) = N[C@H](Cc1ccc(Cl)cc1Cl)C(=O)O; Phe(4-F) = N[C@@H](Cc1ccc(F)cc1)C(=O)O; Pro(4,4-F2) = O=C(O)[C@@H]1CC(F)(F)CN1; dAla(2-furyl) = N[C@H](Cc1ccco1)C(=O)O; dPhe(4-F) = N[C@H](Cc1ccc(F)cc1)C(=O)O; Arg(Me) = CNC(=N)NCCC[C@H](N)C(=O)O; Hyp = O=C(O)[C@@H]1C[C@@H](O)CN1; azaPro = O=C(N1CCCN1[*:1])[*:2]; 2Thi = N[C@@H](Cc1cccs1)C(=O)O; NMeL = CN[C@@H](CC(C)C)C(=O)O; Pip = O=C(O)[C@@H]1CCCCN1; Ac6c = NC1(C(=O)O)CCCCC1; Aze = O=C(O)[C@@H]1CCN1; azaGly = NNC(=O)O; βAla = NCCC(=O)O

For orientation: pEC50 means the negative decadic logarithm of the EC50, by convention in mol/L.

In one experiment the target is T1, human kiss1 receptor (GPR54) (Homo sapiens, UniProt Q969F8).
T1 construct: host or cells: NFAT-bla CHO-K1 cells (Chinese hamster ovary), purchased recombinant cell line
T1 sequence (Q969F8 whole entry): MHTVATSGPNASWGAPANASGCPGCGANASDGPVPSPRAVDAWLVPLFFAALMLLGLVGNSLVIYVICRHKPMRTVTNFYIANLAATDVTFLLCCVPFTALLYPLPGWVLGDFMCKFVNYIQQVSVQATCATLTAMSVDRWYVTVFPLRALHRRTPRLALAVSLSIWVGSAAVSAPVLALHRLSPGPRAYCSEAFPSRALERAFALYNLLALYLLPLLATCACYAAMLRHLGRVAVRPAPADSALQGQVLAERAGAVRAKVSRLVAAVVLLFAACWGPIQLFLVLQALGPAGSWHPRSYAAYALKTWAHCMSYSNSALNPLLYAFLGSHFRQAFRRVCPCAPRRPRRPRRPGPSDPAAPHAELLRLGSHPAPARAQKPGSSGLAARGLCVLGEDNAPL
As to the kind of experiment: Kiss1 receptor (GPR54) binding activity of agonists, FRET detection in NFAT-bla CHO-K1 cells. Type of experiment: cell-based. The conditions noted are these: GPR54; measured according to the method of effect Embodiment 1; preliminary data; read-out: Preliminary measurement data (GPR54) EC50.
On to `CNC(=N)NCCC[C@H](NC(=O)[C@H](CC(C)C)NC(=O)NNC(=O)C1(NC(=O)[C@@H](NC(=O)[C@H](CC(N)=O)NC(=O)[C@@H]2C[C@@H](O)CN2C(=O)[C@@H](Cc2ccc(O)cc2)NC(C)=O)[C@@H](C)O)CCCCC1)C(=O)N[C@@H](Cc1c[nH]c2ccccc12)C(N)=O` [YA-174, Ac-(D-Tyr)-Hyp-Asn-Thr-A6c-azaGly-Leu-Arg(Me)-Trp-NH2] (Ac-[dY][Hyp]NT[Ac6c][azaGly]L[Arg(Me)]W-NH2), for which the pEC50 is 8.59.

Turning to `CNC(=N)NCCC[C@H](NC(=O)[C@H](CC(C)C)NC(=O)NNC(=O)[C@H](Cc1ccccc1)NC(=O)[C@@H](NC(=O)[C@H](CC(N)=O)NC(=O)[C@H](Cc1cccs1)NC(=O)[C@@H](Cc1ccc(Cl)cc1Cl)NC(C)=O)[C@@H](C)O)C(=O)N[C@@H](Cc1c[nH]c2ccccc12)C(N)=O` [YA-178, Ac-[D-Phe(2,4-DiCl)]-Thi-Asn-Thr-Phe-azaGly-Leu-Arg(Me)-Trp-NH2] (Ac-[dPhe(2,4-Cl2)][2Thi]NTF[azaGly]L[Arg(Me)]W-NH2), the pEC50 is 10.96.

In the case of `CNC(=N)NCCC[C@H](NC(=O)[C@H](CC(C)C)NC(=O)N1CCCN1C(=O)[C@H](Cc1ccccc1)NC(=O)[C@@H](NC(=O)[C@H](CC(N)=O)NC(=O)[C@@H]1C[C@@H](O)CN1C(=O)[C@@H](Cc1ccc(Cl)cc1Cl)NC(C)=O)[C@@H](C)O)C(=O)N[C@@H](Cc1c[nH]c2ccccc12)C(N)=O` [YA-184, Ac-[D-Phe(2,4-DiCl)]-Hyp-Asn-Thr-Phe-azaPro-Leu-Arg(Me)-Trp-NH2] (Ac-[dPhe(2,4-Cl2)][Hyp]NTF[azaPro]L[Arg(Me)]W-NH2), the pEC50 was 7.32.

Turning to `CNC(=N)NCCC[C@H](NC(=O)[C@H](CC(C)C)N(C)C(=O)CCNC(=O)[C@H](Cc1ccccc1)NC(=O)[C@@H](NC(=O)[C@H](CC(N)=O)NC(=O)[C@@H]1CCCCN1C(=O)[C@@H](Cc1ccc(Cl)cc1Cl)NC(C)=O)[C@@H](C)O)C(=O)N[C@@H](Cc1c[nH]c2ccccc12)C(N)=O` [YA-185, Ac-[D-Phe(2,4-DiCl)]-(S-Pip)-Asn-Thr-Phe-BetaAla-NMeLeu-Arg(Me)-Trp-NH2] (Ac-[dPhe(2,4-Cl2)][Pip]NTF[βAla][NMeL][Arg(Me)]W-NH2), the pEC50 is 8.44.

For `CNC(=N)NCCC[C@H](NC(=O)[C@H](CC(C)C)N(C)C(=O)CCNC(=O)[C@H](Cc1ccccc1)NC(=O)[C@@H](NC(=O)[C@H](CC(N)=O)NC(=O)[C@@H]1CC(F)(F)CN1C(=O)[C@@H](Cc1ccco1)NC(C)=O)[C@@H](C)O)C(=O)N[C@@H](Cc1c[nH]c2ccccc12)C(N)=O` [YA-186, Ac-[3-(2-Furyl)-D-Ala]-(DiFluorPro)-Asn-Thr-Phe-BetaAla-NMeLeu-Arg(Me)-Trp-NH2] (Ac-[dAla(2-furyl)][Pro(4,4-F2)]NTF[βAla][NMeL][Arg(Me)]W-NH2), the pEC50 was 8.41.

As to `CNC(=N)NCCC[C@H](NC(=O)[C@H](CC(C)C)N(C)C(=O)CCNC(=O)[C@H](Cc1ccccc1)NC(=O)[C@@H](NC(=O)[C@H](CC(N)=O)NC(=O)[C@@H]1C[C@@H](O)CN1C(=O)[C@@H](Cc1ccc(Cl)cc1Cl)NC(C)=O)[C@@H](C)O)C(=O)N[C@@H](Cc1c[nH]c2ccccc12)C(N)=O` [YA-187, Ac-[D-Phe(2,4-DiCl)]-Hyp-Asn-Thr-Phe-BetaAla-NMeLeu-Arg(Me)-Trp-NH2] (Ac-[dPhe(2,4-Cl2)][Hyp]NTF[βAla][NMeL][Arg(Me)]W-NH2), the pEC50 was 8.73.

For `CNC(=N)NCCC[C@H](NC(=O)[C@H](CC(C)C)NC(=O)[C@@H]1CCN1C(=O)[C@H](Cc1ccccc1)NC(=O)[C@@H](NC(=O)[C@H](CC(N)=O)NC(=O)[C@@H]1C[C@@H](O)CN1C(=O)[C@@H](Cc1ccc(Cl)cc1Cl)NC(C)=O)[C@@H](C)O)C(=O)N[C@@H](Cc1c[nH]c2ccccc12)C(N)=O` [YA-188, Ac-[D-Phe(2,4-DiCl)]-Hyp-Asn-Thr-Phe-Aze-Leu-Arg(Me)-Trp-NH2] (Ac-[dPhe(2,4-Cl2)][Hyp]NTF[Aze]L[Arg(Me)]W-NH2), the pEC50 is 9.32.

Consider `CNC(=N)NCCC[C@H](NC(=O)[C@H](CC(C)C)NC(=O)[C@@H]1CCN1C(=O)[C@H](Cc1ccccc1)NC(=O)[C@@H](NC(=O)[C@H](CC(N)=O)NC(=O)[C@@H]1C[C@@H](O)CN1C(=O)[C@@H](Cc1ccco1)NC(C)=O)[C@@H](C)O)C(=O)N[C@@H](Cc1c[nH]c2ccccc12)C(N)=O` [YA-189, Ac-D-2Fua-Hyp-Asn-Thr-Phe-Aze-Leu-Arg(Me)-Trp-NH2] (Ac-[dAla(2-furyl)][Hyp]NTF[Aze]L[Arg(Me)]W-NH2), for which the pEC50 is 8.77.

As for `CNC(=N)NCCC[C@H](NC(=O)[C@H](CC(C)C)NC(=O)[C@@H]1CCN1C(=O)[C@H](Cc1ccccc1)NC(=O)[C@@H](NC(=O)[C@H](CC(N)=O)NC(=O)[C@@H]1C[C@@H](O)CN1C(=O)[C@H](Cc1ccc(F)cc1)NC(C)=O)[C@@H](C)O)C(=O)N[C@@H](Cc1c[nH]c2ccccc12)C(N)=O` [YA-190, Ac-Phe(4-F)-Hyp-Asn-Thr-Phe-Aze-Leu-Arg(Me)-Trp-NH2] (Ac-[Phe(4-F)][Hyp]NTF[Aze]L[Arg(Me)]W-NH2), the pEC50 was 8.41.

On to `CNC(=N)NCCC[C@H](NC(=O)[C@H](CC(C)C)NC(=O)[C@@H]1CCN1C(=O)[C@H](Cc1ccccc1)NC(=O)[C@@H](NC(=O)[C@H](CC(N)=O)NC(=O)[C@H](Cc1cccs1)NC(=O)[C@@H](Cc1ccc(O)cc1)NC(C)=O)[C@@H](C)O)C(=O)N[C@@H](Cc1c[nH]c2ccccc12)C(N)=O` [YA-191, Ac-D-Tyr-Thi-Asn-Thr-Phe-Aze-Leu-Arg(Me)-Trp-NH2] (Ac-[dY][2Thi]NTF[Aze]L[Arg(Me)]W-NH2), for which the pEC50 is 9.28.

Turning to `CNC(=N)NCCC[C@H](NC(=O)[C@H](CC(C)C)NC(=O)[C@@H]1CCN1C(=O)[C@H](Cc1ccccc1)NC(=O)[C@@H](NC(=O)[C@H](CC(N)=O)NC(=O)[C@@H]1CC(F)(F)CN1C(=O)[C@@H](Cc1ccc(O)cc1)NC(C)=O)[C@@H](C)O)C(=O)N[C@@H](Cc1c[nH]c2ccccc12)C(N)=O` [YA-193, Ac-(D-Tyr)-Pro(diF)-Asn-Thr-Phe-Aze-Leu-Arg(Me)-Trp-NH2] (Ac-[dY][Pro(4,4-F2)]NTF[Aze]L[Arg(Me)]W-NH2), the pEC50 was 8.86.

As to `CNC(=N)NCCC[C@H](NC(=O)[C@H](CC(C)C)NC(=O)[C@@H]1CCN1C(=O)[C@H](Cc1ccccc1)NC(=O)[C@@H](NC(=O)[C@H](CC(N)=O)NC(=O)[C@@H]1CCCCN1C(=O)[C@@H](Cc1ccc(O)cc1)NC(C)=O)[C@@H](C)O)C(=O)N[C@@H](Cc1c[nH]c2ccccc12)C(N)=O` [YA-194, Ac-D-Tyr-(S-Pip)-Asn-Thr-Phe-Aze-Leu-Arg(Me)-Trp-NH2] (Ac-[dY][Pip]NTF[Aze]L[Arg(Me)]W-NH2), the pEC50 is 9.26.

As to `CNC(=N)NCCC[C@H](NC(=O)[C@H](CC(C)C)NC(=O)C1(NC(=O)[C@H](Cc2ccccc2)NC(=O)[C@@H](NC(=O)[C@H](CC(N)=O)NC(=O)[C@@H]2C[C@@H](O)CN2C(=O)[C@@H](Cc2ccc(F)cc2)NC(C)=O)[C@@H](C)O)CCCCC1)C(=O)N[C@@H](Cc1c[nH]c2ccccc12)C(N)=O` [YA-195, Ac-[D-Phe(4-F)]-Hyp-Asn-Thr-Phe-A6c-Leu-Arg(Me)-Trp-NH2] (Ac-[dPhe(4-F)][Hyp]NTF[Ac6c]L[Arg(Me)]W-NH2), the pEC50 is 9.17.

Turning to `CNC(=N)NCCC[C@H](NC(=O)[C@H](CC(C)C)NC(=O)C1(NC(=O)[C@H](Cc2ccccc2)NC(=O)[C@@H](NC(=O)[C@H](CC(N)=O)NC(=O)[C@@H]2C[C@@H](O)CN2C(=O)[C@@H](Cc2ccc(Cl)cc2Cl)NC(C)=O)[C@@H](C)O)CCCCC1)C(=O)N[C@@H](Cc1c[nH]c2ccccc12)C(N)=O` [YA-196, Ac-[D-Phe(2,4-DiCl)]-Hyp-Asn-Thr-Phe-A6c-Leu-Arg (Me)-Trp-NH2] (Ac-[dPhe(2,4-Cl2)][Hyp]NTF[Ac6c]L[Arg(Me)]W-NH2), the negative logarithm of the EC50 (pEC50) is 9.32.

As to `CNC(=N)NCCC[C@H](NC(=O)[C@H](CC(C)C)NC(=O)C1(NC(=O)[C@H](Cc2ccccc2)NC(=O)[C@@H](NC(=O)[C@H](CC(N)=O)NC(=O)[C@@H]2C[C@@H](O)CN2C(=O)[C@@H](Cc2ccco2)NC(C)=O)[C@@H](C)O)CCCCC1)C(=O)N[C@@H](Cc1c[nH]c2ccccc12)C(N)=O` [YA-197, Ac-(D-2Fua)-Hyp-Asn-Thr-Phe-A6c-Leu-Arg(Me)-Trp-NH2] (Ac-[dAla(2-furyl)][Hyp]NTF[Ac6c]L[Arg(Me)]W-NH2), the pEC50 is 9.24.

With `CNC(=N)NCCC[C@H](NC(=O)[C@H](CC(C)C)NC(=O)C1(NC(=O)[C@H](Cc2ccccc2)NC(=O)[C@@H](NC(=O)[C@H](CC(N)=O)NC(=O)[C@@H]2C[C@@H](O)CN2C(=O)[C@H](Cc2ccc(F)cc2)NC(C)=O)[C@@H](C)O)CCCCC1)C(=O)N[C@@H](Cc1c[nH]c2ccccc12)C(N)=O` [YA-198, Ac-Phe(4-F)-Hyp-Asn-Thr-Phe-A6c-Leu-Arg(Me)-Trp-NH2] (Ac-[Phe(4-F)][Hyp]NTF[Ac6c]L[Arg(Me)]W-NH2), the pEC50 was 6.42.

Take `CNC(=N)NCCC[C@H](NC(=O)[C@H](CC(C)C)NC(=O)C1(NC(=O)[C@H](Cc2ccccc2)NC(=O)[C@@H](NC(=O)[C@H](CC(N)=O)NC(=O)[C@H](Cc2cccs2)NC(=O)[C@@H](Cc2ccc(F)cc2)NC(C)=O)[C@@H](C)O)CCCCC1)C(=O)N[C@@H](Cc1c[nH]c2ccccc12)C(N)=O` [YA-199, Ac-[D-Phe(4-F)]-Thi-Asn-Thr-Phe-A6c-Leu-Arg(Me)-Trp-NH2] (Ac-[dPhe(4-F)][2Thi]NTF[Ac6c]L[Arg(Me)]W-NH2): the pEC50 was 7.81.

For `CNC(=N)NCCC[C@H](NC(=O)[C@H](CC(C)C)NC(=O)C1(NC(=O)[C@H](Cc2ccccc2)NC(=O)[C@@H](NC(=O)[C@H](CC(N)=O)NC(=O)N2CCCN2C(=O)[C@@H](Cc2ccc(Cl)cc2Cl)NC(C)=O)[C@@H](C)O)CCCCC1)C(=O)N[C@@H](Cc1c[nH]c2ccccc12)C(N)=O` [YA-200, Ac-D-Phe(2,4-DiCl)-azaPro-Asn-Thr-Phe-A6c-Leu-Arg(Me)-Trp-NH2] (Ac-[dPhe(2,4-Cl2)][azaPro]NTF[Ac6c]L[Arg(Me)]W-NH2), the pEC50 is 7.59.

The same experiment, now with this note: NFAT-bla CHO-K1 cells that express human kiss1 receptor (GPR54); FRET; cells cultured with compound for 4 hours; read-out: GPR54 EC50/nM.
As to `CNC(=N)NCCC[C@H](NC(=O)[C@H](CC(C)C)NC(=O)[C@@H]1CCN1C(=O)[C@H](Cc1ccccc1)NC(=O)[C@@H](NC(=O)[C@H](CC(N)=O)NC(=O)[C@@H]1C[C@@H](O)CN1C(=O)[C@H](Cc1ccc(F)cc1)NC(C)=O)[C@@H](C)O)C(=O)N[C@@H](Cc1c[nH]c2ccccc12)C(N)=O` [YA-190, Ac-Phe(4-F)-Hyp-Asn-Thr-Phe-Aze-Leu-Arg(Me)-Trp-NH2] (Ac-[Phe(4-F)][Hyp]NTF[Aze]L[Arg(Me)]W-NH2), the EC50 is 24.3 nM.
